This is an account of results in US7678796B2, “MGluR5 modulators I” (AstraZeneca AB, priority 2006, dated 2010).

Data set [1] addresses T1, human mGluR5d (Homo sapiens, UniProt P41594).
T1 construct: expressed in transfected cells
In words: FLIPR assay, functional assessment of mGluR5 antagonism (intracellular calcium mobilization). It is filed as cell-based. As to conditions: cells expressing human mGluR5d; read-out: FLIPR hmGluR5d. An excerpt:
Biological Evaluation Functional Assessment of mGluR5 Antagonism in Cell Lines Expressing mGluR5D
The properties of the compounds of the invention can be analyzed using standard assays for pharmacological activity. Examples of glutamate receptor assays are well known in the art as described in for example Aramori et al., Neuron 8:757 (1992), Tanabe et al., Neuron 8:169 (1992), Miller et al., J. Neuroscience 15: 6103 (1995), Balazs, et al., J. Neurochemistry 69:151 (1997). The methodology described in these publications is incorporated herein by reference. Conveniently, the compounds of the invention can be studied by means of an assay (FLIPR) that measures the mobilization of intracellular calcium, [Ca^2+]i in cells expressing mGluR5 or another assay (IP3) that measures inositol phosphate turnover.
Cells expressing human mGluR5d as described in WO97/05252 are seeded at a density of 100,000 cells per well on collagen coated clear bottom 96-well plates with black sides and experiments are done 24 h following seeding. All assays are done in a buffer containing 127 mM NaCl, 5 mM KCl, 2 mM MgCl2, 0.7 mM NaH2PO4, 2 mM CaCl2, 0.422 mg/mL NaHCO3, 2.4 mg/mL HEPES, 1.8 mg/mL glucose and 1 mg/mL BSA Fraction IV (pH 7.4). Cell cultures in the 96-well plates are loaded for 60 minutes in the above mentioned buffer containing 4 μM of the acetoxymethyl ester form of the fluorescent calcium indicator fluo-3 (Molecular Probes, Eugene, Oreg.) in 0.01% pluronic acid (a proprietary, non-ionic surfactant polyol—CAS Number 9003-11-6). Following the loading period the fluo-3 buffer is removed and replaced with fresh assay buffer. FLIPR experiments are done using a laser setting of 0.800 W and a 0.4 second CCD camera shutter speed with excitation and emission wavelengths of 488 nm and 562 nm, respectively. Each experiment is initiated with 160 μl of buffer present in each well of the cell plate. A 40 μl addition from the antagonist plate was followed by a 50 μL addition from the agonist plate. A 30 minute interval separates the antagonist and agonist additions. The fluorescence signal is sampled 50 times at 1 second intervals followed by 3 samples at 5 second intervals immediately after each of the two additions. Responses are measured as the difference between the peak height of the response to agonist, less the background fluorescence within the sample period. IC50 determinations are made using a linear least squares fitting program.
On the technique in general: Calcium flux is commonly read through the fluorescence of an indicator in the cells.

The nature of data set [2]: Determination of brain to plasma ratio in rat. It is filed as in vivo. As to conditions: female Sprague Dawley rats, read-out: Brain/Plasma Ratio of compound in Rat. The method, then: Brain to plasma ratios are estimated in female Sprague Dawley rats. The compound is dissolved in water or another appropriate vehicle. For determination of brain to plasma ratio the compound is administrated as a subcutaneous, or an intravenous bolus injection, or an intravenous infusion, or an oral administration. At a predetermined time point after the administration a blood sample is taken with cardiac puncture. The rat is terminated by cutting the heart open, and the brain is immediately retained. The blood samples are collected in heparinized tubes and centrifuged within 30 minutes, in order to separate the plasma from the blood cells. The plasma is transferred to 96-well plates and stored at −20° C. until analysis. The brains are divided in half, and each half is placed in a pre-tarred tube and stored at −20° C. until analysis. Prior to the analysis, the brain samples are thawed and 3 mL/g brain tissue of distilled water is added to the tubes. The brain samples are sonicated in an ice bath until the samples are homogenized. Both brain and plasma samples are precipitated with acetonitrile. After centrifugation, the supernatant is diluted with 0.2% formic acid. Analysis is performed on a short reversed-phase HPLC column with rapid gradient elution and MSMS detection using a triple quadrupole instrument with electrospray ionisation and Selected Reaction Monitoring (SRM) acquisition. Liquid-liquid extraction may be used as an alternative sample clean-up. The samples are extracted, by shaking, to an organic solvent after addition of a suitable buffer. An aliquot of the organic layer is transferred to a new vial and evaporated to dryness under a stream of nitrogen. After reconstitution of the residuals the samples are ready for injection onto the HPLC column.

Data set [3] deals with HERG (Homo sapiens, UniProt Q12809). The data set can be described thus: HERG ionworks. The format is cell-based. Background: The patch-clamp technique gives a direct electrical read-out from membranes.
HERG, sequence (Q12809 whole entry): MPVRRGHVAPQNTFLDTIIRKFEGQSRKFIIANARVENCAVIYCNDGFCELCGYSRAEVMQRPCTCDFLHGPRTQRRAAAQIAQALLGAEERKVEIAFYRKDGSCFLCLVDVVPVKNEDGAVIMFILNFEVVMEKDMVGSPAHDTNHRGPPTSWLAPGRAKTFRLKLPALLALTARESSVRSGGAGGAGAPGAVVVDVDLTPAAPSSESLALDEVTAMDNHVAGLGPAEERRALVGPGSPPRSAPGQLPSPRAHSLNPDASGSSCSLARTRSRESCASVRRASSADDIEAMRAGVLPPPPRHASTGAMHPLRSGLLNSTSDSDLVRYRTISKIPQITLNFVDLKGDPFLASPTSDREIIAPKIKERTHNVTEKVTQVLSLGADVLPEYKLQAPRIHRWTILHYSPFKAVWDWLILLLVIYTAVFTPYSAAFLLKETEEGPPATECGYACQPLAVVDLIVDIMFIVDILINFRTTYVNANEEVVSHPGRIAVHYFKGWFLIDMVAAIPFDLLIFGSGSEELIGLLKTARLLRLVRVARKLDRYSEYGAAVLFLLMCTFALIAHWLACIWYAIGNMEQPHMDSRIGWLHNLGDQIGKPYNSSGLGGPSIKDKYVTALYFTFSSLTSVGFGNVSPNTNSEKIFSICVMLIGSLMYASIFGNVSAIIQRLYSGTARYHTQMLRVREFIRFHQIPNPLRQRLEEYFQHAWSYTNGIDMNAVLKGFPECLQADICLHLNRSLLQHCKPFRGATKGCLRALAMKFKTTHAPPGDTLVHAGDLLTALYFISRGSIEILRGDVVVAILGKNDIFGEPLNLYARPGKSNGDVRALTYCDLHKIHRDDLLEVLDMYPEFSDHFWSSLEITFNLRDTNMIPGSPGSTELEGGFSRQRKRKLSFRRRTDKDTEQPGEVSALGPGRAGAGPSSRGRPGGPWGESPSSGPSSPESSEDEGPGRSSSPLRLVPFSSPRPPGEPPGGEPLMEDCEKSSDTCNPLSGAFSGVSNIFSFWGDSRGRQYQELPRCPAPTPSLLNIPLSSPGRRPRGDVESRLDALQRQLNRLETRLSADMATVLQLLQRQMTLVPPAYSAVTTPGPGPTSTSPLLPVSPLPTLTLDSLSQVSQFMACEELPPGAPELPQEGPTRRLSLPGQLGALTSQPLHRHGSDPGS
A short description of data set [4]: Determination of in vitro stability in human liver microsomes (CLint). As to conditions: pH 7.4, 0.5 mg/mL protein, 1.0 μmol/L compound, NADPH. It is filed as in vitro ADME. The method, then:
Rat liver microsomes are prepared from Sprague-Dawley rats liver samples. Human liver microsomes are either prepared from human liver samples or acquired from BD Gentest. The compounds are incubated at 37° C. at a total microsome protein concentration of 0.5 mg/mL in a 0.1 mol/L potassium phosphate buffer at pH 7.4, in the presence of the cofactor, NADPH (1.0 mmol/L). The initial concentration of compound is 1.0 μmol/L. Samples are taken for analysis at 5 time points, 0, 7, 15, 20 and 30 minutes after the start of the incubation. The enzymatic activity in the collected sample is immediately stopped by adding a 3.5 times volume of acetonitrile. The concentration of compound remaining in each of the collected samples is determined by means of LC-MS. The elimination rate constant (k) of the mGluR5 inhibitor is calculated as the slope of the plot of In[mGluR5 inhibitor] against incubation time (minutes). The elimination rate constant is then used to calculate the half-life (T ½) of the mGluR5 inhibitor, which is subsequently used to calculate the intrinsic clearance (CLint) of the mGluR5 inhibitor in liver microsomes as: CLint.=(ln 2×incubation volume)/(T ½×protein concentration)=μl/min/mg

SMILES strings stand for the structures.

T1 sequence (P41594 21-942 isoform P41594-3 limits assumed): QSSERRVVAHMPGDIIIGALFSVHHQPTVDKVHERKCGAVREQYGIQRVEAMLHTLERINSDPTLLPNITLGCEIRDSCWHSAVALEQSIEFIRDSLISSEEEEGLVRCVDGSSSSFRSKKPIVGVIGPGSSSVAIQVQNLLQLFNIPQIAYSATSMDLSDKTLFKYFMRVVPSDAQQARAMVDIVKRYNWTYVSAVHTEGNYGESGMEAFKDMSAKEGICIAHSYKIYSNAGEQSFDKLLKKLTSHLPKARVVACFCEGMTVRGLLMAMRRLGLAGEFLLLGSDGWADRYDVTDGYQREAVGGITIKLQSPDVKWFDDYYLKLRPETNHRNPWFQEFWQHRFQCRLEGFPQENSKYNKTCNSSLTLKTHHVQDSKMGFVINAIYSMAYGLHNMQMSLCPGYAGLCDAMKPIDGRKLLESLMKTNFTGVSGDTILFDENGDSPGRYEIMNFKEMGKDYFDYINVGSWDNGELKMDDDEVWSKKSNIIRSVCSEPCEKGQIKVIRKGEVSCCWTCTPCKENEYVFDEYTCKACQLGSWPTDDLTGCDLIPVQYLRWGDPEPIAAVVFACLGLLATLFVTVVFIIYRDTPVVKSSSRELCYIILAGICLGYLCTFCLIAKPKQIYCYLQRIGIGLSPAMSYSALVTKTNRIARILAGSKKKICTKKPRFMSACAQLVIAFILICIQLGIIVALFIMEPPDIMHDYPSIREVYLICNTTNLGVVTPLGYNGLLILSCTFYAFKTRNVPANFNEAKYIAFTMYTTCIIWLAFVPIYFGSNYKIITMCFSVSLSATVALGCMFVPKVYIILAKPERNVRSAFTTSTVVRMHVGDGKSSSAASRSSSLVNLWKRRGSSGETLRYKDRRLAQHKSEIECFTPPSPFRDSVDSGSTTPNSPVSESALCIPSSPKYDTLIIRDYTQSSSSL

Turning to `Cc1cccc(-c2cc([C@H]3CCCN3c3nnc(-c4ccn(C)c(=O)c4)n3C)no2)c1` [Example 31.19, 1-Methyl-4-{4-methyl-5-[(R)-2-(5-m-tolylisoxazol-3-yl)pyrrolidin-1-yl]-4H-[1,2,4]triazol-3-yl}-1H-pyridin-2-one], the IC50 in data set [1] was 50 nM. Besides, in data set [2], the Kp amounted to 0.01. Also, the HERG ionworks in data set [3] was determined as 24 µM. For the same compound, the microsomal CLint – broadly, the capacity of the preparation to metabolise the compound, expressed as a volume cleared per time – at 1 μmol/L in data set [4] was under 12 µL/min/mg.

With `Cn1c(-c2ccnnc2)nnc1N1CCC[C@@H]1c1cc(-c2cccc(Cl)c2)on1` [Example 31.8, 4-(5-{(R)-2-[5-(3-Chloro-phenyl)-isoxazol-3-yl]-pyrrolidin-1-yl}-4-methyl-4H-[1,2,4]triazol-3-yl)-pyridazine], the IC50 in data set [1] worked out at 25 nM. Also, the Kp in data set [2] stood at 0.11. Besides, the HERG ionworks in data set [3] is 16 µM. In addition, in data set [4], the microsomal CLint at 1 μmol/L is under 12 µL/min/mg.

With `Cn1c(-c2ccc(=O)n(C)c2)nnc1N1CCC[C@@H]1c1cc(-c2cccc(Cl)c2)on1` [Example 31.7, 5-(5-{(R)-2-[5-(3-Chloro-phenyl)-isoxazol-3-yl]-pyrrolidin-1-yl}-4-methyl-4H-[1,2,4]triazol-3-yl)-1-methyl-1H-pyridin-2-one], the IC50 in data set [1] is 47 nM. Also, in data set [2], the Kp was 0.005. The same compound yielded an HERG ionworks in data set [3] of 23 µM. Besides, the microsomal CLint at 1 μmol/L in data set [4] was under 12 µL/min/mg.

On to `Cn1c(-c2ccn(C)c(=O)c2)nnc1N1CCC[C@@H]1c1nnn(-c2cccc(Cl)c2)n1` [Example 31.11, 4-(5-{(R)-2-[2-(3-Chloro-phenyl)-2H-tetrazol-5-yl]-pyrrolidin-1-yl}-4-methyl-4H-[1,2,4]triazol-3-yl)-1-methyl-1H-pyridin-2-one], for which, in data set [1], the IC50 was 39 nM. The Kp in data set [2] was 0.035. In data set [3], this compound came in with an HERG ionworks of 20 µM. Moreover, in data set [4], the microsomal CLint at 1 μmol/L is under 12 µL/min/mg.
